Results reported in PubChem BioAssay (NCI).
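Compound exposure: 48 hours, 5 concentrations, 96-well plates. GI50 is the concentration that inhibits growth by half. TGI is the concentration that stops growth completely.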

Assays:
Assay in all cases: DTP human tumour cell line panel, 48 h
DU-145 prostate = tested on: DU-145 prostate
MALME-3M melanoma = tested on: MALME-3M melanoma
IGROV1 ovarian = tested on: IGROV1 ovarian
SW-620 colon = tested on: SW-620 colon
CCRF-CEM leukemia = tested on: CCRF-CEM leukemia
SNB-19 CNS = tested on: SNB-19 CNS
BT-549 breast = tested on: BT-549 breast
TK-10 renal = tested on: TK-10 renal
NCI/ADR-RES ovarian = tested on: NCI/ADR-RES ovarian
A498 renal = tested on: A498 renal

Compound	TGI (DU-145 prostate) [µM]	TGI (MALME-3M melanoma) [µM]	TGI (IGROV1 ovarian) [µM]	TGI (SW-620 colon) [µM]	TGI (CCRF-CEM leukemia) [µM]	TGI (SNB-19 CNS) [µM]	TGI (BT-549 breast) [µM]	TGI (TK-10 renal) [µM]	TGI (NCI/ADR-RES ovarian) [µM]	TGI (A498 renal) [µM]	GI50 (MALME-3M melanoma) [µM]	GI50 (SW-620 colon) [µM]	GI50 (NCI/ADR-RES ovarian) [µM]	GI50 (DU-145 prostate) [µM]	GI50 (A498 renal) [µM]	GI50 (IGROV1 ovarian) [µM]	GI50 (CCRF-CEM leukemia) [µM]	GI50 (SNB-19 CNS) [µM]	GI50 (BT-549 breast) [µM]	GI50 (TK-10 renal) [µM]
COc1c(O)cc(O)c2c(=O)cc(-c3ccccc3)oc12	79.5	> 100	> 100	> 100	> 100	> 100	> 100	> 100	> 100											
CCOC(=O)Cc1cc(OC)c(OC)cc1/C(Cl)=C(\C=O)c1ccc(OC)c(OC)c1		74.3	78.9	57		> 100		90.8												
CCOc1cc(C2CC(c3ccc(NS(=O)(=O)c4cc([N+](=O)[O-])ccc4C)cc3)=NN2c2ccc([N+](=O)[O-])cc2[N+](=O)[O-])ccc1O (stereo not given)	45.1	23.2	46.2	> 100	> 100	34.5	38.4	33.7	63.8											
O=C1c2cc3c(cc2CC12Cc1ccc4c(c1C2=O)CCCC4)CCCC3 (stereo not given)	> 100	> 100	> 100	> 100	> 100	> 100		> 100	> 100	59.7										
COc1cc2c(cc1OC)C(Cl)C(c1ccc(Cl)c(Cl)c1)=C2Cl (stereo not given)		40.8	28.9	20	16.7	41.8		48.7		34										
CC1(C)CC(=O)c2c(nc3ccc4ccccc4c3c2-c2ccc(NC(=O)CCCCCCCCC(=O)Nc3ccc(-c4c5c(nc6ccc7ccccc7c46)CC(C)(C)CC5=O)cc3)cc2)C1	> 100		> 100	> 100	> 100	> 100	> 100	> 100	> 100	> 100										
CC1(C)CC(C)(C)C1=NNC(N)=O	> 100	> 100	> 100	> 100	> 100	> 100		> 100	> 100	> 100										
OC(CCNCc1ccccc1)c1ccc2ccccc2c1 (stereo not given)	39.6	38.7	30.6	43.1	> 100	47.9		33.6	49.4	40										
COc1ccc(-c2c(C#N)c(S)n(NS(=O)(=O)c3ccc(C)cc3)c(=O)c2C#N)cc1		> 100	33.9	34.7	26.8	> 100	32.5	> 100	58.9	> 100										
COc1ccc(-c2cc(-c3cc4cc(Br)ccc4nc3Cl)c(C#N)c(N)n2)cc1	> 12.5	> 12.5	> 12.5	> 12.5	> 12.5	> 12.5	> 12.5		> 12.5											
CCOC(=O)C(NC(=O)CC)(Nc1cc(C)on1)C(F)(F)F (stereo not given)			> 100	> 100	> 100	> 100	> 100	> 100	> 100											
NNC(=O)Cn1c2ccc(Br)cc2c2nc3ccccc3nc21	> 100		> 100	> 100		> 100	> 100	> 100	> 100	> 100										
Oc1c([Si](c2ccccc2)(c2ccccc2)c2ccccc2)cc2ccccc2c1-c1c(O)c([Si](c2ccccc2)(c2ccccc2)c2ccccc2)cc2ccccc12	> 100	> 100	> 100	> 100	> 100	> 100		> 100	> 100	> 100										
CCOP(=O)(OCC)C1CC(n2cc(C)c(=O)[nH]c2=O)OC1CO (stereo not given)	> 100	> 100	> 100	> 100	> 100	> 100	> 100	> 100		> 100										
COc1cc(C(C)c2cc3c(cc2OCCO)OCO3)cc(OC)c1OC (stereo not given)		> 100	> 100	> 100	> 100	> 100		> 100												
COC(=O)c1cc2ccc(OC(C)=O)c(OC(C)=O)c2cn1	76.3	24	33.9	31.9	5.57			34.9	70	48.7	11.5	13.4	27.3							
CN(C)c1nc2oc(-c3ccccc3)c(-c3ccccc3)c2c2nnnn12	> 100		> 100	> 100	> 100	> 100		> 100	> 100	> 100										
CC1(C)C2C=CC1(C)C1(CC2)OCCO1 (stereo not given)	> 100	> 100	> 100	> 100	> 100	> 100		> 100	> 100	> 100										
CC(=O)Nc1ccc(OC2=CCN(C)CC2)cc1	> 100	> 100	> 100	> 100	> 100	> 100	> 100	> 100	> 100											
C[C@@H]1CC[C@H]2C(C(O)CCCCC(O)C3=C(C(F)(F)F)O[C@@H]4O[C@@]5(C)CC[C@H]6[C@H](C)CC[C@@H]3[C@@]46OO5)=C(C(F)(F)F)O[C@@H]3O[C@@]4(C)CC[C@@H]1[C@]32OO4 (stereo not given in full)	> 100	> 100	> 100	> 100	> 100	> 100	> 100	> 100		> 100	44.7	5.64		99.9	45.6	15.6	14.3	> 100	80.5	> 100
CN(C(=O)c1ccco1)C(=S)N1CCN(c2ccccc2)CC1		> 100	> 100	> 100	> 100	> 100		> 100												
COc1ccc(C(=O)Cc2ccc(Br)cc2)cc1OC		> 100	> 100	> 100	> 100	> 100		> 100		> 100										
